Biological target: T1, HCK (Homo sapiens, UniProt P08631)
T1 construct: purchased Thermo Fisher Scientific (Life Technologies) SelectScreen
Test: SelectScreen Z'LYTE
Format: biochemical
How it was run: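 SelectScreen broad panel; activity (Z'LYTE, Adapta) plus binding formats. ATP: Km app for CSF1R Z'LYTE; 10 for CAMK1 Adapta. Readout = % per kinase.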

T1 sequence (P08631 whole entry): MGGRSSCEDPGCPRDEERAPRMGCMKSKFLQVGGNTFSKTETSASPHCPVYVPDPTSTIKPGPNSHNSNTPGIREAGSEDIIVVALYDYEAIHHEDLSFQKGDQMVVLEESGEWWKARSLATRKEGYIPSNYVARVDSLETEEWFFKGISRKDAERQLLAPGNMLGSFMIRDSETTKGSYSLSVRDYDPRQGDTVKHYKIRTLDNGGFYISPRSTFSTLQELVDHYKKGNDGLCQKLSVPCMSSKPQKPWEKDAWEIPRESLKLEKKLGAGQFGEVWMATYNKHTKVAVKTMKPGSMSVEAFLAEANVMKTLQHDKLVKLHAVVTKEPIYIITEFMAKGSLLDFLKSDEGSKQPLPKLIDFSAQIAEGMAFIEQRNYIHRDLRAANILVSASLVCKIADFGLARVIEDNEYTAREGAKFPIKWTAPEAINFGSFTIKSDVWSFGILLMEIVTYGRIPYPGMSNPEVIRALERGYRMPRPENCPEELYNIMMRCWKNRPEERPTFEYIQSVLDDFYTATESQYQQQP

Question: `CN(C(=O)CN1CCOCC1)c1ccc2sc3c(-c4cccc5c(=O)cc(N6CC7CCC(C6)O7)oc45)cccc3c2c1` [NU5455] was tested. Which inhibition at 1 µM did it give?
Answer: 18%

— paper PMC6934184, “Selective DNA-PKcs inhibition extends the therapeutic index of localized radiotherapy and chemotherapy” (The Journal of Clinical Investigation, 2019)
